These results are taken from patent US20240197666A1, “DITERPENOID COMPOUNDS THAT ACT ON PROTEIN KINASE C (PKC)” (K-Gen Therapeutics, Inc., priority 2021, published 2024).

Like-named read-outs stand apart in the source and are kept apart here. Bounds are passed on as bounds.

Test [1] relates to A549 cell line. As to the kind of experiment: Proliferation of A549 (CellTiter Glo). It is filed as cell-based. Conditions: Homo sapiens, read-out: IC50 μM (A549 Cell Line). The method, boiled down:
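Compound effect on proliferation was read as CellTiter Glo luminescence after 96 h exposure to a 3-fold dilution series (≤0.25% DMSO). A549 cells, which carry activating K-Ras, were plated at 1,000/well one day before dosing. IC50, relative IC50 and maximal inhibition were fitted from % inhibition versus DMSO control.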
In general terms: Cellular ATP, detected with luciferase, serves as a proxy for viable cell number.

Test [2] concerns the target T1, C1b domain of human PKCδ (Homo sapiens, UniProt Q05655).
T1 construct: Genes encoding C1b domains of human PKCα, δ, ε, θ, and PKD1 (PKCμ) were synthesized; made in house; host or cells: E. coli BL21(DE3)
Kind of test: biochemical. In kind it is binding. The conditions noted are these: 3H-PDBu competition. The method, boiled down:
(§1)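 GST-C1b (human, E. coli-expressed) + 3H-PDBu + compound; 37° C 10 min shaking, then ice 20 min. Filter capture, scintillation count. IC50 → Ki via Cheng-Prusoff, per-prep measured Kd.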

Test [3] addresses T2, C1b domain of human PKCε (Homo sapiens, UniProt Q02156).
T2 construct: Genes encoding C1b domains of human PKCα, δ, ε, θ, and PKD1 (PKCμ) were synthesized; made in house; host or cells: E. coli BL21(DE3)
As to the kind of experiment: biochemical. The conditions noted are these: 3H-PDBu competition. In kind it is binding. The method, boiled down: as §1

For test [4], the system named is PANC1 cells. As to the kind of experiment: Sphere formation assay. It is filed as cell-based. The conditions noted are these: Homo sapiens, PANC-1, read-out: concentration exhibiting at least 50% inhibition on the sphere forming efficiency. The protocol:
A group of diterpenoid compounds of the present disclosure were tested to assess their effects on blocking formation of spheres from cancer cell lines such as PANC1, a K-Ras mutant pancreatic cell line. Briefly, PANC1 cells were harvested, re-suspended as single cell suspensions, counted and seeded into Ultra Low Attachment Culture 96-well plate (Corning, Cat #3474) at 100 cells/well in 100 μl of complete media (with 10% FBS) containing 2% Matrigel (Corning, Cat #354234) and DMSO or compounds. Six replicates per condition were seeded. The seeded cells were placed in the 37° C. tissue culture incubator. 10 μl of low serum containing media (with 0.1% FBS) was added to each well every week. Spheres formed after 3-4 weeks were counted. Sphere forming efficiency was expressed as percentage of # of spheres/ # of cells seeded.

Test [5] addresses T3, C1b domain of human PKCα (Homo sapiens, UniProt P17252).
T3 construct: Genes encoding C1b domains of human PKCα, δ, ε, θ, and PKD1 (PKCμ) were synthesized; made in house; host or cells: E. coli BL21(DE3)
As to the kind of experiment: biochemical. In kind it is binding. Conditions: 3H-PDBu competition.

The target of test [6] is T4, C1b domain of human PKD1 (PKCμ) (Homo sapiens, UniProt Q15139).
T4 construct: Genes encoding C1b domains of human PKCα, δ, ε, θ, and PKD1 (PKCμ) were synthesized; made in house; host or cells: E. coli BL21(DE3)
T4 sequence (Q15139 270-320 limits assumed): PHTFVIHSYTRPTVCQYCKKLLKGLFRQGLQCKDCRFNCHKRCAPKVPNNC
As to the kind of experiment: Competitive 3H-PDBu binding assay, C1b domain of PKD1 (PKCμ). Conditions: 3H-PDBu competition. How it is done:
Compounds described in this disclosure were tested for binding affinity to C1b domain of PKC isoforms. Compound binding affinity to C1b domain of PKC isoforms was derived from competitive binding assay using radioactive tracer ^3H-PDBu and recombinant GST-C1b or full-length of human PKC proteins based on modified procedures from Methods in Molecular Biology, vol.
Genes encoding C1b domains of human PKCα, δ, ε, θ, and PKD1 (PKCμ) were synthesized and inserted into pGEX-2TK or pGEX-4T1 vectors for expression and production of GST-C1b proteins in E. coli BL21(DE3) via IPTG induction. The target proteins were purified by glutathione sepharose 4B and followed by ion exchange chromatography if needed to achieve purity >70%. Aliquots of the purified proteins were stored at −80 degree for binding assay (storage buffer: 20 mM Tris pH 8.0, 200 mM NaCl, 10% glycerol, 1 mM DTT).
The plate was incubated at 37° C. on a shaker at 300 rpm for 10 minutes and then put on ice for 20 minutes. […] The bottom of the filter plate was sealed and 50 μL of MicroScint-20 (PerkinElmer) cocktail was added to each well. ^3H-PDBu trapped in each well was counted using PerkinElmer MicroBeta2 Reader. Data were analyzed using GraphPad Prism5 with the model “log(inhibitor) vs. response-variable slope” to fit the IC50, and then IC50 was transformed to Ki using Cheng-Prusoff equation: Ki=IC50/(1+added radio ligand/Kd). Kd is the binding affinity of each protein preparation to ^3H-PDBu, determined experimentally.

For test [7], the system named is phosphorylation of PKCμ, PKCδ and Erk1/2 in A549 lung cancer cells. Kind of test: Western blot of activation of PKC and downstream target protein in A549 cells. In kind it is cell-based. Conditions: 1 μM, 30 minutes. The protocol: According to the methods described in patent (WO/2017/083783) A549 lung cancer cells (˜3 million cells) were seeded in 10 cm tissue culture dishes (or ˜1 million cells in 6 cm dish) and grown overnight. Cells were then treated with different drugs at indicated concentrations for 30 minutes. Cell lysate preparation, protein quantitation, SDS-PAGE, and Western blotting procedures are described (WO/2017/083783). β-actin or Vinculin was used as loading controls. Imagequant LAS4000 (GE) was used to scan membranes if secondary antibodies anti-mouse IgG HRP conjugate or anti-rabbit IgG HRP conjugate (dilutions from 1:2000-1:10000) were used. For ProteinSimple Wes system, manufacture's procedure was followed (ProteinSimple 12-230 kDa Wes Separation Module) for sample preparation, loading, running, and data analysis.
Phosphorylation of these sites has been linked to acute activation or catalytic activity of the PKC isoforms and Erk1/2. High level of phosphorylation indicates strong activation.
A subset of the diterpenoid compounds with good binding affinity to novel PKC isoforms and PKCμ was tested at two different concentrations in A549 cells to assess activation of PKCμ, PKCδ, and Erk1/2 by Western blot analysis. In addition to the phospho-specific antibodies described above, an additional phospho-specific antibody P-PKCδ (S299) (Abcam cat #133456) was also used. This antibody has been shown in the literature (Durgan et al., FEBS Lett. 2007, 581(18):3377-81, Novel phosphorylation site markers of protein kinase C delta activation) to be able to detect activation of PKCδ. K-101 (prostratin, 1 μM) was included as reference compounds.

In test [8] the test system is KP-4 (Pancreatic). As to the kind of experiment: Proliferation of KP-4. It is filed as cell-based. The conditions noted are these: read-out: IC50 KP-4 (Pancreatic). The protocol: The diterpenoid compounds were tested in A549, a non-small cell lung cancer cell line harboring a K-Ras activating mutation. Briefly, A549 cells at a density of 1,000 cells/well were seeded in 96-well plates and incubated at 37° C. for 24 hours. A series of different concentrations of compound stocks (500×) were prepared by 3-fold serial dilution in DMSO. These compounds were further diluted in culture media and then added to cells so that the final DMSO concentration was not exceeding 0.25%. After 96 hours of incubation, 50 μL of CellTiter Glo reagent (Promega) was added to each well and luminescence was measured after 10 minutes using EnVision (PerkinElmer). Luminescence from cells treated with DMSO alone was set as Max and % of inhibition was calculated as follows: Inhibition %=(Max-Sample value)/Max×100. Data was analyzed using XL-fit software (ID Business Solutions Ltd.) and IC50, relative IC50, and % of top inhibition was calculated. Some of the compounds in this disclosure were very potent in blocking proliferation of A549 lung cancer cells at low nM range. In addition, potency of inhibiting A549 proliferation correlated well with its binding affinity to PKCs for this series of compounds. In other words, higher affinity binders had stronger inhibitory effects on A549 proliferation. This further support the notion that activation, rather than inhibition, of certain PKC isoforms is required to block proliferation of cancer cells, some of which may harbor K-Ras mutations. This is in sharp contrast to previous literature and common belief that inhibition of PKC is necessary to block cancer cell growth (Kang, 2014, New Journal of Science, 2014:1-36). Data presented here is in agreement with recent findings that many loss-of-function but not gain-of-function mutations of PKC isoforms have been identified in many human cancers (Antal et al., 2015, Cell, 160:489-502).
The compounds in this disclosure were tested for their potency in blocking proliferation of a few other cancer cells lines, including K-Ras mutant pancreatic cell lines Panc2.13 and KP-4, leukemia cell line HL-60, and lymphoma cell lines Namalwa and Mino. Similar procedures as in Example 67 were followed. Initial cell numbers seeded in 96-well plates were different for different cell lines: 3000 cells/well for Panc2.13; 800-1000 cells/well for KP-4; 5000 cells/well for HL-60; 5000-10000 cells/well for Namalwa and Mino. A ratio of (IC50 of K101)/(IC50 of compound) (data in parenthesis in Table 5) was used to normalize the compound potency from different assay batches to a common comparator K101.

Test [9] has as its system NFκB-driven transcription in HeLa-NFκB luciferase reporter cell line. As to the kind of experiment: NFκB luciferase reporter assay. The conditions noted are these: Homo sapiens, HeLa, 16 h, read-out: NFκB-luc HeLa cells EC50 (μM). Background: In a reporter assay the amount or activity of a reporter protein is the signal.
Test [10] relates to Mino (Lymphoma). Kind of test: Proliferation of Mino. The conditions noted are these: Homo sapiens, MINO, 96 h; read-out: IC50 Mino (Lymphoma). In kind it is cell-based. In outline:
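Luminescent ATP read-out (CellTiter Glo) after 96 h compound exposure gave % inhibition relative to DMSO-treated cells, from which IC50 was fitted. Seeding densities were line-specific, from 800 to 10000 cells/well. Potency across batches was normalised to reference compound K101.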

For test [11], the system named is Namalwa (Lymphoma). As to the kind of experiment: Proliferation of Namalwa. Conditions: 96 h; read-out: IC50 Namalwa (Lymphoma). It is filed as cell-based. The method, boiled down:
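Panc2.13 was seeded at 3000 cells/well, KP-4 at 800-1000, HL-60 at 5000 and Namalwa at 5000-10000, then given 3-fold serial dilutions of compound with final DMSO ≤0.25% for 96 h at 37° C. CellTiter Glo luminescence was read and inhibition calculated against DMSO-only wells. IC50 was normalised to comparator K101.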

T1 sequence (Q05655 230-280 limits assumed): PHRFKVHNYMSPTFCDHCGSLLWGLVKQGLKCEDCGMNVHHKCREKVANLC
T2 sequence (Q02156 242-292 limits assumed): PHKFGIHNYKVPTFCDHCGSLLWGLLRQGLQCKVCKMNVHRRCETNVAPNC

As a reminder, the Ki is the equilibrium dissociation constant of an inhibitor or competing ligand from its target. Low readings indicate higher affinity, high ones lower affinity. On to `CC1=C[C@H]2[C@@]3(O)[C@H](C)C[C@]4(OC(=O)[C@@H](N)C(C)(C)C)[C@H]([C@@H]3C=C(CO)C[C@]2(O)C1=O)C4(C)C`, for which the IC50 in test [1] (A549, 96 h) is 0.2 to 0.6 µM; in test [4] it was no more than 1500 nM. The Ki in test [2] lay in the range of 10 to 30 nM; in test [3], 60 to 100 nM.

As for `CC1=C[C@H]2[C@@]3(O)[C@H](C)C[C@]4(OC(=O)[C@@H](N)CCc5ccc(C(F)(F)F)cc5)[C@H]([C@@H]3C=C(CO)C[C@]2(O)C1=O)C4(C)C`, in test [1] (A549, 96 hours, CellTiter Glo), the IC50 was 0.1 to 0.2 µM. Further, the Ki in [5] was 200 to 400 nM; in test [6], less than 5 nM; in test [2] it was 10 to 30 nM.

By EC50 is commonly meant the concentration at which the effect is half-maximal. In the case of `CC(=O)O[C@@]12C[C@@H](C)[C@@]3(O)[C@@H](C=C(CO)C[C@]4(O)C(=O)C(C)=C[C@@H]34)[C@@H]1C2(C)C` [Compound K101, prostratin, reference compound], in [7], the “phosphorylation of PKCμ, PKCδ and Erk1/2” value is “induced high levels of phosphorylation”. For the same molecule, the IC50 in test [8] is 200 to 600 nM; in test [10] it was 100 to 600 nM; in test [11] it was 100 to 600 nM; in [4] (PANC1, spheres counted after 3-4 weeks) it was 5500 nM. In test [9], the EC50 was in the range of 0.2 to 0.6 µM.
